Data published in patent US11938128B2, “Small molecule BAX inhibitors and uses thereof” (Albert Einstein College of Medicine, priority 2017, dated 2024).
Where two headings read alike, the source gives them in different places.

How the values were obtained:
BAX [1] = biological target: BAX (Homo sapiens, UniProt Q07812); experiment: liposome release assay, tBID-induced BAX activation in liposomal membranes; format: biochemical
Source text: FIG. 8. BAI compounds tested in BAX inhibition assay using tBID-induced BAX activation in liposomal membranes.
These compounds were hypothesized, but never shown, to work through BAX inhibition (19, 20). Accordingly, it was first investigated whether several of these small molecules inhibit BAX-mediated permeabilization of artificial membranes of similar lipid composition to the outer mitochondrial membrane (OMM). A liposome release assay (21), in which liposomes that contain a fluorophore are created, was used. Incorporation of tBID-activated BAX into the liposome membrane stimulates release of the fluorophore, providing a system to study BAX-mediated membrane permeabilization in isolation of other mitochondrial and cellular factors.
IC50 were predicted based on of “Normalized inhibition values” correlated with measured IC50 values.

Adult rat cardiomyocytes = experiment: hypoxia/reoxygenation-induced death of adult cardiomyocytes; format: cell-based
Procedure: (§1) FIG. 6A-6C. […] Cell death was assessed using calcein AM (alive) and ethidium homodimer (dead) staining. (C) BAI1 inhibits hypoxia-induced loss of inner mitochondrial membrane potential (Δψm) in neonatal cardiomyocytes.
FIG. 22A-22B. […] Percentage of dead cells represents percentage of EthD positive cells.

[2] = pharmacokinetics of BAI-A1 in the mouse; format: in vivo; conditions: other: injection (type of injection not given), 1 mg/kg
Procedure: Accordingly, the ability of BAI-A1 to inhibit BAX activation during MI/R was tested in vivo (FIG. 7). […] This was assessed following 45 min ischemia/6 h reperfusion, the time point that BAX is activated maximally in the absence of drug. It was concluded that BAI-A1 can access myocardial cells and is effective at inhibiting BAX activation during MI/R in vivo. The pharmacokinetics of BAI-A1 were measured in the mouse by injecting 1 mg/kg into a cohort of mice and harvesting plasma and heart tissue 0, 1, 6, and 24 h.

[3] = tested on: neonatal rat cardiomyocytes (NRCM); experiment: hypoxia-induced death of primary neonatal cardiomyocytes (calcein AM / ethidium homodimer); format: cell-based; conditions: for inhibition of hypoxia-induced neonatal cardiomyocyte death: percentage of EthD positive cells
Procedure: as §1
FIG. 20A-20B. […] Quantification of percentage of TUNEL positive cells. […] BAI-1 dose response. Percentage of dead cells represents percentage of ethidium homodimer-1 (EthD) positive cells.
FIG. 21A-21C. BAI-A1, BAI-A2 and BAI-A21 inhibit cardiomyocyte necrotic cell death. NRCM were pre-treated with varying concentrations of BAI-A1 (A), BAI-A2 (B) or BAI-A21 (C) and cultured under normoxic or hypoxic conditions. Percentage of dead cells represents percentage of EthD positive cells.

[4] = pharmacokinetic properties, half-life in plasma; format: in vivo
[5] = biological target: recombinant, purified BAX (Homo sapiens, UniProt Q07812); experiment: BAX binding by 1H-NMR and 15N-1H HSQC NMR; conditions: not shown
recombinant, purified BAX, sequence (Q07812 whole entry, the tested form may be a part): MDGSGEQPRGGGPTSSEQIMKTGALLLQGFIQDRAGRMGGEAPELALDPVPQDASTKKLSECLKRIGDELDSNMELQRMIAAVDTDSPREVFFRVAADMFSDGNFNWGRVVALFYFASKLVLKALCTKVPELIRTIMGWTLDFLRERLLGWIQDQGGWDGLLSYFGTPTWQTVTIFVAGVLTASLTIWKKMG

BAX [6] = biological target: T1, BAX (Mus musculus, UniProt Q07813); experiment: BAX activation during MI/R in vivo, 6A7 antibody immunostaining; conditions: 45 min ischemia/6 h reperfusion, 6A7 immunostaining
T1 construct: from tissue; host or cells: heart (myocardium) after 45 min ischemia/6 h reperfusion
T1 sequence (Q07813 whole entry, the tested form may be a part): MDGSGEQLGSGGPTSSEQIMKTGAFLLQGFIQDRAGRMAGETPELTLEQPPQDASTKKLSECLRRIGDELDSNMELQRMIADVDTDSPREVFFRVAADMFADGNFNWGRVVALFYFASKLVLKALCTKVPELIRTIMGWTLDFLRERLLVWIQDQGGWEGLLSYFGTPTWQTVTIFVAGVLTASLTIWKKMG
Procedure: Accordingly, the ability of BAI-A1 to inhibit BAX activation during MI/R was tested in vivo (FIG. 7). […] The pharmacokinetics of BAI-A1 were measured in the mouse by injecting 1 mg/kg into a cohort of mice and harvesting plasma and heart tissue 0, 1, 6, and 24 h.

[7] = plasma protein binding, mouse plasma; format: in vitro ADME
[8] = chronic doxorubicin-induced cardiomyopathy mouse model; format: in vivo; conditions: doxorubicin 3 mg/kg IP x8, inhibitor 2 mg/kg
Source text: FIG. 25A-25B. […] (A) Hearts were collected from mice in the chronic doxorubicin model and sectioned to stain for the apoptosis marker, TUNEL. Percentage of TUNEL positive nuclei per field. (B) Hearts were collected from mice in the chronic doxorubicin model and sectioned to immunostain for HMGB1, loss of which indicates necrosis. Percentage of nuclei that lost HMGB1 per field.
Patients typically receive several “cycles” of doxorubicin administered at lower doses. The exact protocol depends on the cancer being treated. For example, some leukemias are treated with 4 cycles of 60 mg/m^2 (which would be the equivalent of 1.5 mg/kg) IV administered every 21-28 days. […] Based on this experience, a chronic protocol was used in which mice receive 3 mg/kg doxorubicin IP every other day×8 doses (i.e. over a two-week period) for a cumulative dose of 24 mg/kg.

[9] = tested on: mouse embryonic fibroblasts; experiment: TNFα-induced BAX-mediated apoptotic cell death; format: cell-based; conditions: data not shown
[10] = BAI-A22 pharmacokinetics in rats, non-compartmental analysis; format: in vivo; conditions: rat, plasma, iv, male Sprague Dawley rats, 1 mg/kg intravenously, NCA
Procedure: FIG. 11A-11B. BAI-A22 pharmacokinetics. BAI-A22 was injected intravenously in male Sprague Dawley® rats at 1 mg/kg dose and blood plasma and heart tissue were collected at different time points, and drug levels measured by LC-MS/MS. (A) Average BAI-A22 concentrations in blood plasma. (B) Average BAI-A22 concentrations in heart tissue.
Pharmacokinetic parameters from non-compartmental analysis using WinNonLin software. C0: maximum plasma concentration extrapolated to t=0; tmax: time of maximum plasma concentration; t1/2: half-life; MRTlast: mean residence time, calculated to the last observable time point; CL: clearance; Vss: steady state volume of distribution; AUClast: area under the curve, calculated to the last observable time point; AUC∞: area under the curve, extrapolated to infinity. Materials and Methods for the Chemical Syntheses

[11] = plasma protein binding, rats; format: in vitro ADME; conditions: rat
[12] = tested on: mouse embryonic fibroblasts; experiment: apoptosis in mouse embryonic fibroblasts (FIG. 18); format: cell-based; conditions: doxorubicin-induced per text, STS or ABT-737 per legend
Source text: FIG. 18. […] Apoptosis was induced with either staurosporine (STS) or pro-apoptotic ABT-737 drug.

[13] = acute doxorubicin heart failure model in mice; format: in vivo, mouse; conditions: doxorubicin 20 mg/kg i.p. single; inhibitor 2 mg/kg i.p. single
BAX [14] = biological target: T1, BAX; experiment: STS-induced BAX translocation to mitochondria (immunostaining of BAX puncta); format: cell-based; conditions: data not shown
Procedure: A key event in BAX activation is exposure of α helix 9 containing a transmembrane domain that inserts tightly into the outer mitochondrial membrane (OMM). BAX insertion into the OMM can be assessed by treating isolated mitochondria with strong alkali, which separates loosely attached proteins from mitochondria but fails to extract membrane-inserted proteins. […] One important result of BAX conformational activation is its translocation from cytosol to mitochondria. […] Translocation was assessed by immunostaining for mitochondrial BAX puncta. […] (Data not shown.)

[15] = liposome release, minimum of 4 inhibitor concentrations around the IC50, read-out: Measured IC 50/μM
[16] = predicted from normalized inhibition values (5 and 10 μM, normalized to BAI1) correlated with measured IC50 values, read-out: Predicted IC50/μM

BAX (Homo sapiens, UniProt Q07812), sequence (Q07812 whole entry): as the sequence (Q07812 whole entry, the tested form may be a part) above

SMILES: OC(CN1CCN(CCCc2ccccc2)CC1)Cn1c2ccc(Br)cc2c2cc(Br)ccc21 (stereo not drawn) [BAI-3]
- inhibition of membrane permeabilization induced by tBID-activated BAX (BAX [1]; FIG. 2): not effective to inhibit tBID-induced BAX activation
- fluorophore release by compound alone (BAX [1]; compound alone, without BAX/tBID): do not stimulate fluorophore release

SMILES: OC(CN1CCNCC1)Cn1c2ccccc2c2ccccc21 (stereo not drawn) [BAI-A1]
- inhibition of adult cardiomyocyte necrosis (Adult rat cardiomyocytes; hypoxia and reoxygenation (H/R)): inhibit necrosis in cardiomyocytes in a dose-dependent manner
- ability to protect adult cardiomyocytes against hypoxia/reoxygenation, versus BAI-1 (Adult rat cardiomyocytes; not shown): only modestly decreased
- half-life ([2]; heart tissue, read-out: half-life in heart tissue (converted)): ~3.5 h
- half-life ([2]; plasma, read-out: half-life in plasma (converted)): ~3.5 h
- ability to protect neonatal cardiomyocytes against hypoxia, versus BAI-1 ([3]; not shown): only modestly decreased
- inhibition of hypoxia-induced neonatal cardiomyocyte death [3]: inhibit necrosis in cardiomyocytes in a dose-dependent manner
- half-life [4]: 3.5 h
- BAX binding relative to BAI-1 [5]: less BAX binding than BAI-1
- BAX conformational activation in vivo (BAX [6]): potently blocks BAX conformational activation
- fraction unbound [7]: 0.106
- IC50 (BAX [1]; [15]): 40 µM
- IC50 (BAX [1]; [16]): > 20 µM

SMILES: OCCN(CCO)CC(O)Cn1c2ccc(Cl)cc2c2cc(Cl)ccc21 (stereo not drawn) [BAI-A9]
- IC50 (BAX [1]; [16]): 9.7 µM

SMILES: OCC(O)Cn1c2ccc(Br)cc2c2cc(Br)ccc21 (stereo not drawn) [BAI-A10]
- IC50 (BAX [1]; [16]): 10.8 µM

SMILES: O=C(O)CCn1c2ccc(Br)cc2c2cc(Br)ccc21 [BAI-A11]
- IC50 (BAX [1]; [16]): 10.4 µM

SMILES: OCCNCC(O)Cn1c2ccc(Br)cc2c2cc(Br)ccc21 (stereo not drawn) [BAI-A12]
- IC50 (BAX [1]; [16]): 8.8 µM

SMILES: CN1CCN(CC(O)CN2c3ccccc3Sc3ccccc32)CC1 (stereo not drawn) [BAI-A13]
- IC50 (BAX [1]; [15]): 13 µM
- IC50 (BAX [1]; [16]): 13.8 µM

SMILES: OCCN(CCO)CC(O)CN1c2ccccc2Sc2ccccc21 (stereo not drawn) [BAI-A14]
- IC50 (BAX [1]; [16]): 15.3 µM

SMILES: OCCN1CCN(CCCN2c3ccccc3Sc3ccccc32)CC1 [BAI-A15]
- IC50 (BAX [1]; [15]): 6 µM
- IC50 (BAX [1]; [16]): 11.7 µM

SMILES: OC(CN1CCNCC1)Cn1c2ccc(F)cc2c2cc(F)ccc21 (stereo not drawn) [BAI-A16]
- IC50 (BAX [1]; [15]): 18 µM

SMILES: Cc1ccc2c(c1)c1cc(C)ccc1n2CC(O)CN1CCNCC1 (stereo not drawn) [BAI-A17]
- IC50 (BAX [1]; [15]): 27 µM

SMILES: OC(CN1CCNCC1)Cn1c2ccc(C(F)(F)F)cc2c2cc(C(F)(F)F)ccc21 (stereo not drawn) [BAI-A18]
- IC50 (BAX [1]; [15]): 15 µM

SMILES: Cc1ccc(N(CC(O)CN2CCNCC2)c2ccc(C)cc2)cc1 (stereo not drawn) [BAI-A19]
- inhibition of hypoxia-induced neonatal cardiomyocyte death [3]: potently inhibits primary neonatal cardiomyocyte death induced by hypoxia
- BAX conformational activation in vivo (BAX [6]): inhibition of BAX activation in vivo
- IC50 (BAX [1]; [15]): 26 µM

SMILES: Cc1cn(CC(O)CN2CCNCC2)c2ccccc12 (stereo not drawn) [BAI-A20]
- inhibition of hypoxia-induced neonatal cardiomyocyte death [3]: does not
- IC50 (BAX [1]; [15]): > 100 µM

SMILES: OC(CN1CCNCC1)CN(c1ccc(Br)cc1)c1ccc(Br)cc1 (stereo not drawn) [BAI-A21]
- inhibition of hypoxia-induced neonatal cardiomyocyte death [3]: inhibit necrosis in cardiomyocytes in a dose-dependent manner
- IC50 (BAX [1]; [15]): 4.5 µM

SMILES: OC(CN1CCNCC1)CN(c1ccccc1)c1ccc(Br)cc1 (stereo not drawn) [BAI-A22, 1-((4-bromophenyl)(phenyl)amino)-3-(piperazin-1-yl)propan-2-ol]
- cardiac dysfunction (fractional shortening, ejection fraction, systolic wall thickening) [8]: significantly protected the heart from cardiac dysfunction
- nuclear fragmentation [9]: Nuclear fragmentation was also inhibited
- AUC(0-t) ([10]; parameter and unit are drawings, read-out: AUClast: area under the curve, calculated to the last observable time point): 0.39 ± 0.0427 µg·h/mL
- MRT last ([10]; parameter and unit are drawings, read-out: MRTlast: mean residence time, calculated to the last observable time point): 2.15 h
- Tmax ([10]; parameter and unit are drawings, read-out: tmax: time of maximum plasma concentration): 0 h
- Vd ([10]; parameter is a drawing, read-out: Vss: steady state volume of distribution): 10.5 L/kg
- AUC(0-inf) ([10]; unit is a drawing): 0.524 µg·h/mL
- Cmax ([10]; unit is a drawing): 0.318 µg/mL
- clearance ([10]; unit is a drawing): 1.91 L/h/kg
- half-life ([10]; unit is a drawing): 5.04 h
- C0 ([10]; unit is a drawing, read-out: C0: maximum plasma concentration extrapolated to t=0): 0.318 µg/mL
- inhibition of hypoxia-induced neonatal cardiomyocyte death [3]: potently inhibits primary neonatal cardiomyocyte death induced by hypoxia
- half-life [4]: 5 h
- fraction unbound [11]: 0.044
- IC50 (BAX [1]; [15]): 11 µM
- apoptosis in mouse embryonic fibroblasts [12]: inhibits doxorubicin-induced apoptosis in mouse embryonic fibroblasts
- heart function (ejection fraction) in doxorubicin-treated mice [13]: therapeutically effective
- BAX translocation to the mitochondria (BAX [14]): A similar result was observed
